System: angiotensin II receptor
Assay: Angiotensin II receptor binding assay ([3H] angiotensin II displacement)
Conditions: 60 minutes at 25° C., pH 7.2, test concentration not given
Description: The inventive compounds were tested to measure their angiotensin II receptor binding capacity as follows.
1. Angiotensin II receptor binding assay
In accordance with the procedure disclosed in Chiu, A. T. et al., Eur. J. Pharm., 157, 13 ([…])t a ligand marked with a radioistope was reacted with an angiotensin II receptor and the reactant was filtered with a glass fiber to remove unreacted ligand. After washing the filter, the amount of the remaining isotope was measured to determine the binding activity of the ligand, as described below in detail.
(i) Isolation of angiotensin II receptor
Sprague-Dawley rats and Wistar rats of 250 to 350 g (from The Korea Research Institute of Chemical Technology) were tested and the test procedures were carried out at 4° C., unless otherwise specified. Adrenal gland was separated from the Sprague-Dawley rats (liver, in the case of Wistar rats) into cortex and medulla. The separated adrenal cortex and medulla were washed with a sucrose buffer solution (0.2M sucrose, 1 mM EDTA, 10 mM Tris, pH 7.2) and homogenized in the same buffer solution by using a Teflon pestle and a Brinkmann homogenizer. The homogenates were centrifuged at 3,000× g for 10 minutes to remove precipitates and further centrifuged at 12,000× g for 13 minutes. The final supernatants were centrifuged at 102,000× g for 1 hour to obtain precipitates, which were washed with a Tris buffer solution (50 mM Tris, 5 mM MgCl2, pH 7.2) and re-centrifuged at 102,000× g for 1 hour. The resulting precipitates were immediately processed at the following step or stored at -70° C.
The precipitates were suspended in a Tris buffer solution. The amount of protein was determined by using a Bio-Rad DC protein analyzing kit and the protein concentration was adjusted to the amounts of: 0.2 to 0.3 mg/ml (Sprague-Dawley rat: adrenal cortex), 1.5 to 2.0 mg/ml (Sprague-Dawley rat: adrenal medulla), and 1.5 to 2.0 mg/ml (Wistar rat: liver). To the suspension, bovine serum albumin (BSA) was added to a concentration of 0.25 wt % and the resultant was immediately processed at the following step or stored at -70° C.
(ii) Measurement of angiotensin II receptor binding capacity
50 μl (based on ligand) of [^3 H] angiotensin II (NEN, NET-446) and 10 μl of each of the test compounds with various concentrations were added to the buffer solution (50 mM Tris (pH 7.2), 5 mM MgCl2, 0.25% BSA) to adjust the final volume to be 0.5 ml. Losartan (Dup 753), which is disclosed in EP No. 400,974 issued to Merck, was used as the control compound. 100 μl of the receptor suspension was added thereto and the resulting solution was reacted for 60 minutes while stirring in a water bath at 25° C. 3 ml of cold buffer solution for analysis was added to cease the reaction. The isotope which was bound to the receptor was isolated from the resultant by using Brandel Cell Harvester System with Whatman glass fiber GF/C. After washing the filter, the radioactivity of the filter was determined by using a liquid scintillation counter. Binding inhibition (%) of the test compound was calculated as follows:
Binding Inhibition (%)=[{(T-B)-(S-B)}/(T-B)]×100
wherein T is the radioactivity (cpm) of the reaction product untreated with the test compound, S is the radioactivity (cpm) of the reaction product treated with the test compound, and B is the radioactivity (cpm) of blank test.

Row | Compound | Binding Inhibition (%)
1 | CCCCc1nc(Cl)c(C(=O)c2ccc(C(OC)OC)c[n+]2[O-])n1Cc1ccc(-c2ccccc2-c2nn[nH]n2)cc1 [Compound 22, {2-butyl-5-chloro-3-[(2'-(1H-tetrazol-5-yl)biphenyl-4-yl)methyl]-3H-imidazol-4-yl}[5-(dimethoxymethyl)-1-oxypyridin-2-yl]methanone] | 90.1
2 | CCCCc1nc(Cl)c(C(=O)c2ccc(C=O)c[n+]2[O-])n1Cc1ccc(-c2ccccc2-c2nn[nH]n2)cc1 [Compound 23, {2-butyl-5-chloro-3-[(2'-(1H-tetrazol-5-yl)biphenyl-4-yl)methyl]-3H-imidazol-4-yl}(5-formyl-1-oxypyridin-2-yl)methanone] | 93.4
3 | CCCCc1nc(Cl)c(C(O)c2ccc(CO)c[n+]2[O-])n1Cc1ccc(-c2ccccc2-c2nn[nH]n2)cc1 (centres unmarked) [Compound 24, {2-butyl-5-chloro-3-[(2'-(1H-tetrazol-5-yl1)biphenyl1-4-yl)methyl1]-3H-imidazol-4-yl}(5-hydroxymethyl-1-oxypyridin-2-yl)methanol] | 76.1
4 | CCCCc1nc(Cl)c(C(O)c2ccc(C(OC)OC)cn2)n1Cc1ccc(-c2ccccc2-c2nnn[nH]2)cc1 (centres unmarked) [Compound 25, {2-butyl-5-chloro-3-[(2'-(1H-tetrazol-5-yl)biphenyl-4-yl)methyl]-3H-imidazol-4-yl}[5-(dimethoxymethyl)pyridin-2-yl]methanol] | 87.8
5 | CCCCc1nc(Cl)c(C(=O)c2ccc(C(OC)OC)cn2)n1Cc1ccc(-c2ccccc2-c2nnn[nH]2)cc1 [Compound 26, {2-butyl-5-chloro-3-[(2'-(1H-tetrazol-5-yl)biphenyl-4-yl)methyl]-3H-imidazol-4-yl}[5-(dimethoxymethyl)pyridin-2-yl]methanone] | 94.0
6 | CCCCc1nc(Cl)c(C(=O)c2ccc(C=O)cn2)n1Cc1ccc(-c2ccccc2-c2nn[nH]n2)cc1 [Compound 27, {2-butyl-5-chloro-3-[(2'-(1H-tetrazol-5-yl1)biphenyl-4-yl)methyl]-3H-imidazol-4-yl}(5-formylpyridin-2-yl)methanone] | 81.3
7 | CCCCc1nc(Cl)c(C(=O)c2ccc(CO)cn2)n1Cc1ccc(-c2ccccc2-c2nn[nH]n2)cc1 [Compound 28] | 78.9
8 | CCCCc1nc(Cl)c(C(=O)c2ccc(CCl)cn2)n1Cc1ccc(-c2ccccc2-c2nnn[nH]2)cc1 [Compound 29, {2-butyl-5-chloro-3-[(2'-(1H-tetrazol-5-yl)biphenyl-4-yl)methyl]-3H-imidazol-4-yl}[5-(chloromethyl)pyridin-2-yl]methanone] | 83.6
9 | CCCCc1nc(Cl)c(C(O)c2ccc(CO)cn2)n1Cc1ccc(-c2ccccc2-c2nnn[nH]2)cc1 (centres unmarked) [Compound 30, {2-butyl-5-chloro-3-[(2'-(1H-tetrazol-5-yl)biphenyl-4-yl)methyl]-3H-imidazol-4-yl}[5-(hydroxymethyl)pyridin-2-yl]methanol] | 90.2
10 | CCCCc1nc(Cl)c(C(=O)c2ccc(CN(CC)CC)c[n+]2[O-])n1Cc1ccc(-c2ccccc2-c2nn[nH]n2)cc1 [Compound 31, {2-butyl-5-chloro-3-[(2'-(1H-tetrazol-5-yl)biphenyl-4-yl)methyl]-3H-imidazol-4-yl}[5-(diethylamino)methyl-1-oxypyridin-2-yl]methanone] | 97.8
11 | CCCCc1nc(Cl)c(C(=O)c2ccc(C[N+]([O-])(CC)CC)c[n+]2[O-])n1Cc1ccc(-c2ccccc2-c2nn[nH]n2)cc1 [Compound 32, {2-butyl-5-chloro-3-[(2'-(1H-tetrazol-5-yl)biphenyl-4-yl)methyl]-3H-imidazol-4-yl}[5-((diethyl)(oxy)amino)methyl-1-oxypyridin-2-yl]methanone] | 98.8
12 | CCCCc1nc(Cl)c(C(O)c2ccc(CN(CC)CC)cn2)n1Cc1ccc(-c2ccccc2-c2nnn[nH]2)cc1 (centres unmarked) [Compound 33, {2-butyl-5-chloro-3-[(2'-(1H-tetrazol-5-yl)biphenyl-4-yl)methyl]-3H-imidazol-4-yl}[5-((diethylamino)methyl)pyridin-2-yl]methanol] | 73.3
13 | CCCCc1nc(Cl)c(C(=O)c2ccc(CN(CC)CC)cn2)n1Cc1ccc(-c2ccccc2-c2nnn[nH]2)cc1 [Compound 34, {2-butyl-5-chloro-3-[(2'-(1H-tetrazol-5-yl)biphenyl-4-yl)methyl]-3H-imidazol-4-yl}[5-((diethylamino)methyl)pyridin-2-yl]methanone] | 95.6
14 | CCCCc1nc(Cl)c(C(=O)c2ccc(C[N+]([O-])(CC)CC)cn2)n1Cc1ccc(-c2ccccc2-c2nn[nH]n2)cc1 [Compound 35, {2-butyl-5-chloro-3-[(2'-(1H-tetrazol-5-yl)biphenyl-4-yl)methyl]-3H-imidazo1-4-yl}{5-[((diethyl)(oxy)amino)methyl]pyridin-2-yl}methanone] | 97.9
15 | CCCCc1nc(Cl)c(C(O)c2cccc(C(=O)N(CC)CC)[n+]2[O-])n1Cc1ccc(-c2ccccc2-c2nn[nH]n2)cc1 (centres unmarked) [Compound 36, {2-butyl-5-chloro-3-[(2'-(1H-tetrazol-5-yl)biphenyl-4-yl)methyl]-3H-imidazol-4-yl}[6-(diethylamino)carbonyl-1-oxypyridin-2-yl]methanol] | 75.4
16 | CCCCc1nc(Cl)c(C(=O)c2cccc(C(=O)N(CC)CC)[n+]2[O-])n1Cc1ccc(-c2ccccc2-c2nn[nH]n2)cc1 [Compound 37, {2-butyl-5-chloro-3-[(2'-(1H-tetrazol-5-yl)biphenyl-4-yl)methyl]-3H-imidazol-4-yl}[6-(diethylamino)carbonyl-1-oxypyridin-2-yl]methanone] | 92.8
17 | CCCCc1nc(Cl)c(C(=O)c2cccc(C=NO)[n+]2[O-])n1Cc1ccc(-c2ccccc2-c2nn[nH]n2)cc1 [Compound 38, {2-butyl-5-chloro-3-[(2'-(1H-tetrazol-5-yl)biphenyl-4-yl)methyl]-3H-imidazol-4-yl}[6-(hydroxyimino)methyl-1-oxypyridin-2-yl]methanone] | 95.4
18 | CCCCc1nc(Cl)c(C(=O)c2ccc(C(OC)OC)c(C)[n+]2[O-])n1Cc1ccc(-c2ccccc2-c2nn[nH]n2)cc1 [Compound 39, {2-butyl-5-chloro-3-[(2'-(1H-tetrazol-5-yl)biphenyl-4-yl)methyl]-3H-imidazol-4-yl}[5-(dimethoxymethyl)-6-methyl-1-oxypyridin-2-yl]methanone] | 87.5
19 | CCCCc1nc(Cl)c(C(=O)c2ccc(C=O)c(C)[n+]2[O-])n1Cc1ccc(-c2ccccc2-c2nn[nH]n2)cc1 [Compound 40, {2-butyl-5-chloro-3-[(2'-(1H-tetrazol-5-yl)biphenyl-4-yl)methyl]-3H-imidazol-4-yl}(5-formyl-6-methyl-1-oxypyridin-2-yl)methanone] | 90.4
20 | CCCCc1nc(Cl)c(CO)n1Cc1ccc(-c2ccccc2-c2nn[nH]n2)cc1 [Dup 753, Losartan, reference compound] | 48.0
